Measurements published in patent US6362212B1, “Oxime derivative and bactericide containing the same as active ingredient” (Shionogi & Company, Ltd., priority 1994, dated 2002).

Key:
Assay type in all cases: in vivo
[1] = test system: Pyricularia oryzae; conditions: foliage spray on rice seedlings (cv. […]), number of lesions six days after the inoculation
[2] = test system: Sphaerotheca fuliginea; test: Controlling effect on Sphaerotheca fuliginea by foliage application (pot experiment); conditions: foliage spray on cucumber (cv. TSUKUBASHIROIBO) first leaves, infected area after 10 days in greenhouse at 20° C.
Experimental: The following Test Examples illustrate the effects of the fungicide of the present invention. (I. Controlling effects on various plant diseases by foliage application (pot experiment)) A test compound was dissolved in a small amount of N,N-dimethylformamide, and the solution was diluted to a given concentration with distilled water containing a spreader. Thus, a liquid sample to be tested was prepared. The liquid sample was sprayed to test plants, and 24 hours thereafter, pathogens were inoculated by the method described below. […] Seeds of cucumber ([…]) were sown in plastic cups (each 9 cm in diameter), followed by cultivation for 2 to 3 weeks. The liquid test sample in the form of a solution or suspension was sprayed on the surface of their first leaves. The pathogen was inoculated to the leaves by spraying a conidia suspension of Sphaerotheca fuliginea which had been cultured on the cucumber leaves. After the inoculation, the plants were kept in a greenhouse at 20° C. for 10 days. Then, the infected area on the leaf was observed, and the percent control was calculated.

[3] = test system: Erysiphe graminis f. sp. tritici; test: Controlling effect on Erysiphe graminis f. sp. tritici by foliage application (pot experiment); conditions: foliage spray on wheat (cv. NORIN No. 61) seedlings, infected area after 10 days in greenhouse at 20° C.
Experimental: The following Test Examples illustrate the effects of the fungicide of the present invention. (I. Controlling effects on various plant diseases by foliage application (pot experiment)) A test compound was dissolved in a small amount of N,N-dimethylformamide, and the solution was diluted to a given concentration with distilled water containing a spreader. Thus, a liquid sample to be tested was prepared. The liquid sample was sprayed to test plants, and 24 hours thereafter, pathogens were inoculated by the method described below. […] The seeds of wheat (cv.: NORIN No. 61) were sown in plastic cups (each 9 cm in diameter), followed by cultivation for 2 to 3 weeks. The test compound in the form of a solution or suspension was sprayed to the seedlings, and conidia of Erysiphe graminis f. sp. tritici cultured on wheat leaves were dropped on the test plants to inoculate the plants with the pathogen. After the inoculation, the plants were kept in a greenhouse at 20° C. for 10 days. The infected area on the leaf was observed, and the percent control was calculated.

## CON=C(c1ccon1)c1ccccc1COc1cccc(C(F)(F)F)c1 (mixture of isomers) [compound 322]
[1]
  Controlling effect on PYricularia orYzae by foliage application at 500 ppm (percent control): 70 percent control
[2]
  Controlling effect on Sphaerotheca fuliginea by foliage application at 500 ppm (percent control): 100 percent control
[3]
  Controlling effect on ErYsiphe graminis f. sp. tritici by foliage application at 500 ppm (percent control): 70 percent control

## CON=C(C1=NCCN1)c1ccccc1COc1cccc(C)c1 (mixture of isomers) [compound 1461]
[1]
  Controlling effect on PYricularia orYzae by foliage application at 500 ppm (percent control): 70 percent control

## CCON=C(c1ccon1)c1ccccc1COc1cc(C)ccc1C (mixture of isomers) [compound 1674]
[1]
  Controlling effect on PYricularia orYzae by foliage application at 500 ppm (percent control): 70 percent control
[2]
  Controlling effect on Sphaerotheca fuliginea by foliage application at 500 ppm (percent control): 70 percent control
[3]
  Controlling effect on ErYsiphe graminis f. sp. tritici by foliage application at 500 ppm (percent control): 70 percent control

## CON=C(c1ccccc1COc1ccc(Cl)cc1)c1nccn1C (single isomer, unassigned) [107A]
[1]
  Controlling effect on PYricularia orYzae by foliage application at 500 ppm (percent control): 90 percent control
[2]
  Controlling effect on Sphaerotheca fuliginea by foliage application at 500 ppm (percent control): 100 percent control
[3]
  Controlling effect on ErYsiphe graminis f. sp. tritici by foliage application at 500 ppm (percent control): 70 percent control

## CON=C(c1ccccc1COc1ccccc1OC)c1nccn1C (single isomer, unassigned) [118B]
[1]
  Controlling effect on PYricularia orYzae by foliage application at 500 ppm (percent control): 70 percent control

## CON=C(c1ccccc1COc1ccc(Cl)cc1C)c1nccn1C (single isomer, unassigned) [141B]
[1]
  Controlling effect on PYricularia orYzae by foliage application at 500 ppm (percent control): 70 percent control
[2]
  Controlling effect on Sphaerotheca fuliginea by foliage application at 500 ppm (percent control): 100 percent control

## CON=C(c1ccccc1COc1cc(C)ccc1C)c1ccnn1C (single isomer, unassigned) [1554A]
[1]
  Controlling effect on PYricularia orYzae by foliage application at 500 ppm (percent control): 70 percent control
[3]
  Controlling effect on ErYsiphe graminis f. sp. tritici by foliage application at 500 ppm (percent control): 70 percent control

## CON=C(c1ccco1)c1ccccc1COc1cc(C)ccc1C (single isomer, unassigned) [1634A]
[2]
  Controlling effect on Sphaerotheca fuliginea by foliage application at 500 ppm (percent control): 100 percent control
[3]
  Controlling effect on ErYsiphe graminis f. sp. tritici by foliage application at 500 ppm (percent control): 97 percent control

## CON=C(c1ccccc1COc1cc(C)ccc1C)n1ccnc1 [Compound No. 39]
[1]
  Controlling effect on PYricularia orYzae by foliage application at 500 ppm (percent control): 70 percent control
[2]
  Controlling effect on Sphaerotheca fuliginea by foliage application at 500 ppm (percent control): 100 percent control

## CON=C(c1ccccc1COc1ccc(Cl)cc1)n1cnc(C)c1 [Compound No. 227]
[2]
  Controlling effect on Sphaerotheca fuliginea by foliage application at 500 ppm (percent control): 97 percent control
[3]
  Controlling effect on ErYsiphe graminis f. sp. tritici by foliage application at 500 ppm (percent control): 70 percent control

## O=C1OCc2c(Cl)c(Cl)c(Cl)c(Cl)c21 [Fthalide, reference compound]
[1]
  Controlling effect on PYricularia orYzae by foliage application at 500 ppm (percent control): 97 percent control

## CON=C(c1ccccc1COc1ccccc1Cl)n1cnc(C)c1 [compound 225]
[1]
  Controlling effect on PYricularia orYzae by foliage application at 500 ppm (percent control): 70 percent control

## CON=C(c1ccccc1COc1ccccc1)n1ccnc1C [compound 241]
[1]
  Controlling effect on PYricularia orYzae by foliage application at 500 ppm (percent control): 70 percent control

## CON=C(c1ccccc1COc1ccc(C)cc1)n1cncn1 [compound 270]
[2]
  Controlling effect on Sphaerotheca fuliginea by foliage application at 500 ppm (percent control): 97 percent control
[3]
  Controlling effect on ErYsiphe graminis f. sp. tritici by foliage application at 500 ppm (percent control): 90 percent control

## CON=C(c1ccccc1COc1ccccc1)n1cccn1 [compound 281]
[1]
  Controlling effect on PYricularia orYzae by foliage application at 500 ppm (percent control): 70 percent control
[3]
  Controlling effect on ErYsiphe graminis f. sp. tritici by foliage application at 500 ppm (percent control): 90 percent control

## CON=C(c1ccccc1COc1ccc(Cl)cc1)n1cccn1 [compound 287]
[1]
  Controlling effect on PYricularia orYzae by foliage application at 500 ppm (percent control): 90 percent control

## CCON=C(c1ccccc1COc1ccccc1)n1cccn1 [compound 295]
[1]
  Controlling effect on PYricularia orYzae by foliage application at 500 ppm (percent control): 90 percent control
[3]
  Controlling effect on ErYsiphe graminis f. sp. tritici by foliage application at 500 ppm (percent control): 90 percent control

## CON=C(c1ccccc1Oc1ccccc1)n1cccn1 [compound 300]
[1]
  Controlling effect on PYricularia orYzae by foliage application at 500 ppm (percent control): 70 percent control
[2]
  Controlling effect on Sphaerotheca fuliginea by foliage application at 500 ppm (percent control): 70 percent control

## CON=C(c1nnco1)c1ccccc1COc1ccc(Cl)cc1 [compound 707]
[2]
  Controlling effect on Sphaerotheca fuliginea by foliage application at 500 ppm (percent control): 100 percent control
[3]
  Controlling effect on ErYsiphe graminis f. sp. tritici by foliage application at 500 ppm (percent control): 90 percent control

## CON=C(C1=NCCN1C)c1ccccc1COc1ccc(C)cc1 [compound 1114]
[2]
  Controlling effect on Sphaerotheca fuliginea by foliage application at 500 ppm (percent control): 70 percent control
[3]
  Controlling effect on ErYsiphe graminis f. sp. tritici by foliage application at 500 ppm (percent control): 70 percent control

## CON=C(C1=NCCN1C)c1ccccc1COc1ccccc1C(F)(F)F [compound 1121]
[2]
  Controlling effect on Sphaerotheca fuliginea by foliage application at 500 ppm (percent control): 100 percent control
[3]
  Controlling effect on ErYsiphe graminis f. sp. tritici by foliage application at 500 ppm (percent control): 90 percent control

## CON=C(C1=NCCN1C)c1ccccc1COc1ccc(C(F)(F)F)cc1 [compound 1123]
[2]
  Controlling effect on Sphaerotheca fuliginea by foliage application at 500 ppm (percent control): 90 percent control
[3]
  Controlling effect on ErYsiphe graminis f. sp. tritici by foliage application at 500 ppm (percent control): 90 percent control

## CON=C(C1=NCCO1)c1ccccc1COc1cccc(C)c1 [compound 1311]
[2]
  Controlling effect on Sphaerotheca fuliginea by foliage application at 500 ppm (percent control): 70 percent control
[3]
  Controlling effect on ErYsiphe graminis f. sp. tritici by foliage application at 500 ppm (percent control): 70 percent control

## CON=C(c1ncc[nH]1)c1ccccc1COc1cc(C)ccc1C [compound 1428]
[2]
  Controlling effect on Sphaerotheca fuliginea by foliage application at 500 ppm (percent control): 100 percent control
[3]
  Controlling effect on ErYsiphe graminis f. sp. tritici by foliage application at 500 ppm (percent control): 70 percent control

## CON=C(C1=NCCN1)c1ccccc1COc1ccccc1C [compound 1460]
[1]
  Controlling effect on PYricularia orYzae by foliage application at 500 ppm (percent control): 90 percent control
[3]
  Controlling effect on ErYsiphe graminis f. sp. tritici by foliage application at 500 ppm (percent control): 90 percent control

## CON=C(C1=NCCS1)c1ccccc1COc1cc(C)ccc1C [compound 1514]
[2]
  Controlling effect on Sphaerotheca fuliginea by foliage application at 500 ppm (percent control): 97 percent control
[3]
  Controlling effect on ErYsiphe graminis f. sp. tritici by foliage application at 500 ppm (percent control): 70 percent control

## CON=C(c1ncno1)c1ccccc1COc1ccccc1 [compound 1581]
[1]
  Controlling effect on PYricularia orYzae by foliage application at 500 ppm (percent control): 70 percent control
[2]
  Controlling effect on Sphaerotheca fuliginea by foliage application at 500 ppm (percent control): 70 percent control

## CON=C(c1cnco1)c1ccccc1COc1cc(C)ccc1C [compound 1734]
[2]
  Controlling effect on Sphaerotheca fuliginea by foliage application at 500 ppm (percent control): 90 percent control
[3]
  Controlling effect on ErYsiphe graminis f. sp. tritici by foliage application at 500 ppm (percent control): 70 percent control

## CON=C(c1cnco1)c1ccccc1Oc1ccccc1 [compound 1735]
[2]
  Controlling effect on Sphaerotheca fuliginea by foliage application at 500 ppm (percent control): 100 percent control
[3]
  Controlling effect on ErYsiphe graminis f. sp. tritici by foliage application at 500 ppm (percent control): 97 percent control

## CON=C(c1nnn(C)n1)c1ccccc1COc1ccccc1C [compound 2012]
[2]
  Controlling effect on Sphaerotheca fuliginea by foliage application at 500 ppm (percent control): 100 percent control
[3]
  Controlling effect on ErYsiphe graminis f. sp. tritici by foliage application at 500 ppm (percent control): 70 percent control

## CON=C(c1ccccc1CON=C(C)c1ccccc1)n1ccnc1 [compound 3041]
[1]
  Controlling effect on PYricularia orYzae by foliage application at 500 ppm (percent control): 90 percent control
[2]
  Controlling effect on Sphaerotheca fuliginea by foliage application at 500 ppm (percent control): 97 percent control
